Measurements taken from US20120225909A1, “INDAZOLE ANALOG” (priority 2009, published 2012).

Key:
[1] = molecular target: T1, human β1-adrenergic receptor (Homo sapiens, UniProt P08588); assay: Test Case 2-C: human β1-adrenergic receptor agonist activity (Cerep cellular functional GPCR, beta 1); format: cell-based; conditions: concentration 10 μM, isoproterenol = 100%
T1 construct: expressed in transfected cells; host or cells: CHO (Chinese hamster ovary) cells, pcDNA3
Excerpt: (§1) Measurement of Human β1-Adrenergic Receptor Agonist Activity

[2] = molecular target: T2, human β2-adrenergic receptor (Homo sapiens, UniProt P07550); assay: Test Case 3-C: human β2-adrenergic receptor agonist activity (Cerep cellular functional GPCR, beta 2); format: cell-based; conditions: concentration 10 μM, isoproterenol = 100%
T2 construct: expressed in transfected cells; host or cells: CHO (Chinese hamster ovary) cells, pcDNA3
Excerpt: (§2) Measurement of Human β2-Adrenergic Receptor Agonist Activity

[3] = molecular target: T3, human α1A-adrenergic receptor (Homo sapiens, UniProt P35348); assay: Test Case 4-B: human α1A-adrenergic receptor agonist activity (Cerep cellular functional GPCR, alpha 1A); format: cell-based; design: expressed in transfected cells; conditions: concentration 10 μM; for α1 receptor % of Control Agonist Response, Control; Epinephrine: epinephrine = 100%; for α1 receptor % of Control Agonist Response, Control; Norepinephrine: norepinephrine = 100%
T3 sequence (P35348 1-466): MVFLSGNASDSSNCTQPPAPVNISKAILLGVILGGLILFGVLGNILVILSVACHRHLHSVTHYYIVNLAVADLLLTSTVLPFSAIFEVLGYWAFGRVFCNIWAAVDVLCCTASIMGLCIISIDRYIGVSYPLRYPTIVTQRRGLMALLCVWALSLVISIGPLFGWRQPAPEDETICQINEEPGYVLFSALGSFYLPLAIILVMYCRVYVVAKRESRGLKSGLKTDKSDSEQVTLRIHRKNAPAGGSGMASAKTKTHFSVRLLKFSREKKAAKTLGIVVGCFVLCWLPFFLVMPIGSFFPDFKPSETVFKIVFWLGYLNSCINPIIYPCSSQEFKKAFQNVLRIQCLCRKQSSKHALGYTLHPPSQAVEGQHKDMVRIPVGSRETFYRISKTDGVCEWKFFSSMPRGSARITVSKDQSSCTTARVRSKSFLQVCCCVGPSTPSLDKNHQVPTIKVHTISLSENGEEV
Excerpt: Measurement of Human α1A-Adrenergic Receptor Agonist Activity
The human α1A-adrenergic receptor agonist activity] can be measured by […] Functional GPCR·Gs, alpha 1A (Ref. 722-36a) listed on p. 52 of the Cerep 2008 CATALOG IN VITRO PHARMACOLOGY & ADME-TOX.

[4] = molecular target: T4, human β3-adrenergic receptor (Homo sapiens, UniProt P13945); assay: Test Case 1-B: human β3-adrenergic receptor agonist activity (cAMP-Screen, 96-well); format: cell-based
T4 construct: A full-length human β3 gene is obtained from a human genomic library (made by Clontech) using this as the probe; expressed in transfected cells; host or cells: CHO (Chinese hamster ovary) cells, pcDNA3
Summary of the method: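 CHO cells stably transfected with full-length human β3 gene, serum-starved 15 min, then exposed to serially diluted compound in Ham's F-12 with 100 mmol/L HEPES and 1 mmol/L IBMX (diluent concentrations) for 30 min. Cells lysed 30 min at 37 °C; cAMP quantified by cAMP-Screen immunoassay.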

[5] = molecular target: T1, human β1-adrenergic receptor; assay: Test Case 2-B: human β1-adrenergic receptor agonist activity; format: cell-based; conditions: read-out: β1 receptor I.A.
Protocol: as §1
The human β1-adrenergic receptor agonist activity is measured by the same method as in Test Case 1-B using CHO (Chinese hamster ovary) cells transfected by a human β1 gene inserted in pcDNA3 (Invitrogen).

[6] = molecular target: T3, human α1A-adrenergic receptor; assay: Test Case 4-A: human α1A-adrenergic receptor agonist activity (HEK293, Ca flux, Fura-2); format: cell-based; design: expressed in transfected cells; host or cells: HEK293 cells, pcDNA3.1; conditions: HEK293; read-out: α1A receptor I.A.
Summary of the method: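 Fura-2AM-loaded HEK293 cells transfected with human α1A were preincubated for 180 s. Compound (sample plate 10^−5 to 10^−12 M) was added after ~30 s of 340/380 nm excitation ratio reading (500 nm emission, 2-s intervals), followed by 270 s more reading. Ca flux is the peak height: maximum ratio after addition minus the pre-addition ratio.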

[7] = molecular target: T2, human β2-adrenergic receptor; assay: Test Case 3-B: human β2-adrenergic receptor agonist activity; format: cell-based; conditions: read-out: β2 receptor I.A.
Protocol: as §2
The human β2-adrenergic receptor agonist activity is measured by the same method as in Test Case 1-B using CHO (Chinese hamster ovary) cells transfected by a human β2 gene inserted in pcDNA3 (Invitrogen).

Male C57BL/6 Cr mice = assay: Test Case 10: mouse piloerection test; format: in vivo; conditions: 10 mg/kg i.v.
Protocol: Male C57BL/6 Cr mice (Japan SLC) are used. The dissolved compound is administered rapidly via a caudal vein. The animal is placed on the observation stand 5, 15, 30, and 60 minutes after administration, and the state of piloerection is observed. The state of piloerection is evaluated by the following 7-level scoring system according to the examples by the method of Irwin (Psychopharmacologia 1968, 13; 222-257).
Scoring system: “Score 0”: No piloerection at all; “Score 1”: Slight piloerection (piloerection on part of the body such as the back or neck); “Score 2”: Moderate piloerection (piloerection over the entire body); “Score 3”: Marked piloerection (piloerection over the entire body, conspicuous to the extent that the skin can be seen).
“Score 0.5” is between “Score 0” and “Score 1” “Score 1.5” is between […]. “Score 2.5” is between “Score 2” and “Score 3.”

T1 sequence (P08588 whole entry): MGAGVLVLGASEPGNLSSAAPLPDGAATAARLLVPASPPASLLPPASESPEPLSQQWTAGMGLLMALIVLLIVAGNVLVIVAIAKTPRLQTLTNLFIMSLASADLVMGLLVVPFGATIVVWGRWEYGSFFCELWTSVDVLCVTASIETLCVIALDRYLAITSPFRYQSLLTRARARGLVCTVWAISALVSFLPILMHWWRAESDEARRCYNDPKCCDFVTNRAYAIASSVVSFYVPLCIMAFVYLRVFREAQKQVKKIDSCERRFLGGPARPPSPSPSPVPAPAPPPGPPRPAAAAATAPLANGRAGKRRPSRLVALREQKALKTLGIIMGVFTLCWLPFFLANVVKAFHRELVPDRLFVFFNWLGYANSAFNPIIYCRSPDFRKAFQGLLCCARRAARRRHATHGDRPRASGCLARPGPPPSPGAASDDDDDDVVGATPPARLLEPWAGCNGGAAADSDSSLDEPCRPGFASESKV
T4 sequence (P13945 whole entry): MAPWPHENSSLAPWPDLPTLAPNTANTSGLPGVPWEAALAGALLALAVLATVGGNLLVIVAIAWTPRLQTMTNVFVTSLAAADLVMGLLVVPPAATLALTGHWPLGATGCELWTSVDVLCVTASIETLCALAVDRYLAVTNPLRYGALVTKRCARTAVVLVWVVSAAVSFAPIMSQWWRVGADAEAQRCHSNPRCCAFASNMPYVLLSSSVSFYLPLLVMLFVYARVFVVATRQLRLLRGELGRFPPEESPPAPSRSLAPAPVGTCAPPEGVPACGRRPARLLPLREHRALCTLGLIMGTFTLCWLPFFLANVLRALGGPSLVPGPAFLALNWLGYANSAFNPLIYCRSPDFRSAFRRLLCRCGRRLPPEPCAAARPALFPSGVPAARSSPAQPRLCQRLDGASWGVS

Row | Compound | β1 receptor % of Control Agonist Response [1] [%] | β2 receptor % of Control Agonist Response [2] [%] | α1 receptor % of Control Agonist Response, Control; Epinephrine [3] [%] | α1 receptor % of Control Agonist Response, Control; Norepinephrine [3] [%] | other results
1 | Cc1n[nH]c2cc(OCCNC[C@H](O)c3cccc(NS(=O)(=O)c4cc(F)c(F)cc4F)c3)ccc12 [ex85, (R)-2,4,5-trifluoro-N-(3-(1-hydroxy-2-(2-(3-methylindazol-6-yloxy)ethylamino)ethyl)phenyl) benzenesulfonamide] | 30 | 1.0 | 0.1 | 0.1 | 
2 | O=S(=O)(Nc1cccc([C@@H](O)CNCCOc2ccc3c(Cl)n[nH]c3c2)c1)c1cccnc1 [ex155, (R)-N-(3-(2-(2-(3-chloroindazol-6-yloxy)ethylamino)-1-hydroxyethyl)phenyl)pyridine-3-sulfonamide] | 12 |  |  |  | β2 receptor % of Control Agonist Response ([2]; 10 µM): 2.2%; α1 receptor % of Control Agonist Response, Control; Epinephrine ([3]; 10 µM): 0%; α1 receptor % of Control Agonist Response, Control; Norepinephrine ([3]; 10 µM): 0%
3 | Nc1ccc(F)c(S(=O)(=O)Nc2cccc([C@@H](O)CNCCOc3ccc4c(Cl)n[nH]c4c3)c2)c1 [ex242, (R)-5-amino-N-(3-(2-(2-(3-chloroindazole-6-yloxy)ethylamino)-1-hydroxyethyl)phenyl)-2-fluorobenzenesulfonamide] | 9.4 | −0.2 | 0.7 | 0.6 | 
4 | O=S(=O)(Nc1cc([C@@H](O)CNCCOc2ccc3c(C(F)(F)F)n[nH]c3c2)ccc1Cl)C1CC1 [ex199, (R)-N-(2-chloro-5-(1-hydroxy-2-(2-(3-(tri-fluoromethyl)-indazol-6-yloxy)ethylamino)-ethyl)phenyl)-cyclo-propanesulfonamide] | 8.0 | 8.8 | 17 | 15 | 
5 | O=S(=O)(Nc1cccc([C@@H](O)CNCCOc2ccc3c(Cl)n[nH]c3c2)c1)c1cccnc1 [ex156, (R)-N-(3-(2-(2-(3-chloroindazol-6-yloxy)ethylamino)-1-hydroxyethyl)phenyl)pyridine-3-sulfonamide] | 12 |  |  |  | β2 receptor % of Control Agonist Response ([2]; 10 µM): 3.5%; α1 receptor % of Control Agonist Response, Control; Epinephrine ([3]; 10 µM): 3.9%; α1 receptor % of Control Agonist Response, Control; Norepinephrine ([3]; 10 µM): 3.4%
6 | O=S(=O)(Nc1cccc([C@@H](O)CNCCOc2ccc3c(C(F)(F)F)n[nH]c3c2)c1)c1cccnc1 [ex186, (R)-N-(3-(1-hydroxy-2-(2-(3-(trifluoromethyl)-indazol-6-yloxy)ethylamino)ethyl)phenyl)pyridine-3-sulfonamide] | 7.2 | 1.9 | 0.6 | 0.5 | 
7 | (R)-N-(3-(2-(2-(3- ethylindazol-6- yloxy)ethylamino)-1- hydroxyethyl)phenyl)- ? -methyli ? zole-4- sulfonamide [ex134] | 7.0 | 2.0 | 7.0 | 6.0 | 
8 | CCc1n[nH]c2cc(OCCNC[C@H](O)c3cccc(NS(=O)(=O)C4CC4)c3)ccc12 [ex124, (R)-N-(3-(2-(2-(3-ethylindazol-6-yloxy)ethylamino)-1-hydroxyethyl)phenyl)-cyclopropanesul-fonamide] |  |  |  |  | Emax ([4]; 0.5 h, read-out: β3 receptor I.A.): 52%; EC50 ([4]; Test Case 1-B, CHO cells, cAMP): 13 nM; Emax [5]: -6%; Emax [6]: 0%; Emax [7]: -1%; number of experimental animals matching Score 0 (no piloerection) (Male C57BL/6 Cr mice; n=4, observation time 5 min): 2; number of experimental animals matching Score 0.5 (Male C57BL/6 Cr mice; n=4, observation time 5 min): 1; number of experimental animals matching Score 1 (slight piloerection) (Male C57BL/6 Cr mice; n=4, observation time 5 min): 1; number of experimental animals matching Score 0.5 (Male C57BL/6 Cr mice; n=4, observation time 15 min): 3; number of experimental animals matching Score 1 (slight piloerection) (Male C57BL/6 Cr mice; n=4, observation time 15 min): 1; number of experimental animals matching Score 0 (no piloerection) (Male C57BL/6 Cr mice; n=4, observation time 30 min): 2; number of experimental animals matching Score 0.5 (Male C57BL/6 Cr mice; n=4, observation time 30 min): 2; number of experimental animals matching Score 0 (no piloerection) (Male C57BL/6 Cr mice; n=4, observation time 60 min): 2; number of experimental animals matching Score 0.5 (Male C57BL/6 Cr mice; n=4, observation time 60 min): 2
